“And” between values parts separate entries of the source, which are not always exact repeats. Identical values can stand only once. The source made the active and inactive calls.

This note sets out measurements from ChEMBL document CHEMBL1201862, “PubChem BioAssay data set” (2004).

For one test, the target named is T1, Estrogen receptor (Homo sapiens, UniProt P03372).
T1 sequence (P03372 whole entry): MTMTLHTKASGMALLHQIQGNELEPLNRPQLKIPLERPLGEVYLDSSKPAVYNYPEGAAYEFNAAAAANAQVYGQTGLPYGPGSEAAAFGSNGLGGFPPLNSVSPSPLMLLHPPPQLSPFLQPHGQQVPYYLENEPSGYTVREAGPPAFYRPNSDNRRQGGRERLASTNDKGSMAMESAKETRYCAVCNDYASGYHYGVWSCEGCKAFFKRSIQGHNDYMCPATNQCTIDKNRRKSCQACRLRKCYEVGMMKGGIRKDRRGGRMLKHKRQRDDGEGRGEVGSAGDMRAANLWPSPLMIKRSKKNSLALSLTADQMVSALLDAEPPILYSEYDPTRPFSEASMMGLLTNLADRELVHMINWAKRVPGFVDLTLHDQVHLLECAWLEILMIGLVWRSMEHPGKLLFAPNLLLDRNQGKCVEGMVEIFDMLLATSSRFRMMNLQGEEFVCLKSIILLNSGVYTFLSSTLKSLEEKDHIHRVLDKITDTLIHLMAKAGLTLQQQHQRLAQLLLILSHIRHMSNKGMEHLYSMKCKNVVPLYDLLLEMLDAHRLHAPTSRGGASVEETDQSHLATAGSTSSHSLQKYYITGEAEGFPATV

Test [1] in a line: viability inhibitors of stage V gametocytes – luminescence, dose response (AID 1117278).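 Also: gametocytes exposed to compound for 24 hours.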 In kind it is functional, cell-based.
The nature of test [2]: viability loss in human Jurkat cells – cell-based, luminescence, cytotoxicity control for P. falciparum gametocyte viability project, dose response (AID 1117277).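 Also: potency reflects loss of cellular ATP meaning fewer viable cells.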 In kind it is functional.
Test [3] addresses T2, Estrogen receptor beta (Homo sapiens, UniProt Q92731).
Test [4] deals with T2, Estrogen receptor beta. Nature of the test: blockers of SRC-3 recruitment to ERβ – biochemical, ELISA, streptavidin-HRP readout, orthogonal assay, confirmation (AID 1060). For orientation: An ELISA detects its analyte on a solid surface through an enzyme-linked reagent.
Test [5] addresses T3, Heat shock factor protein 1 (Mus musculus, UniProt P38532).
T3 sequence (P38532 whole entry): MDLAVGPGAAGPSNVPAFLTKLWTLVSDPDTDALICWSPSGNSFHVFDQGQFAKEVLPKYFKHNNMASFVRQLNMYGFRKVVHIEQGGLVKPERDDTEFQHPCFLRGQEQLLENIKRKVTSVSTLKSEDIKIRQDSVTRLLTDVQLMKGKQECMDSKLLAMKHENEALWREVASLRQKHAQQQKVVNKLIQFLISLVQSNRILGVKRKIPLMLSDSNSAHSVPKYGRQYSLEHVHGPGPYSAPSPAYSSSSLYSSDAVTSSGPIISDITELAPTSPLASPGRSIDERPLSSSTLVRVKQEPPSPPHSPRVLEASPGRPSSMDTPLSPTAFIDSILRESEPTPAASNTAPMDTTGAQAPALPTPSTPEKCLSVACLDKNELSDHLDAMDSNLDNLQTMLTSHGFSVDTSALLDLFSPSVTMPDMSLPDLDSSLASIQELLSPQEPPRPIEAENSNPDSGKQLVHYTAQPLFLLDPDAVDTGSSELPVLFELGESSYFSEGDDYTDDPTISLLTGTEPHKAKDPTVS
Nature of the test: decrease of HSF1-responsive luciferase luminescence – cell-based, NIH3T3, dose retest, confirmation (AID 2382).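 Also: NIH3T3 fibroblasts with HSF1-driven luciferase reporter stressed by proteasome inhibitor MG132; luminescence from HSF1-driven luciferase expression after 8 hours of MG132 stress.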 The format is functional.

The target in a further test is Major prion protein (Homo sapiens, UniProt P04156). The format is functional, cell-based.
Test [6] deals with T4, Mannose-6-phosphate isomerase (Homo sapiens, UniProt P34949).
T4 sequence (P34949 whole entry): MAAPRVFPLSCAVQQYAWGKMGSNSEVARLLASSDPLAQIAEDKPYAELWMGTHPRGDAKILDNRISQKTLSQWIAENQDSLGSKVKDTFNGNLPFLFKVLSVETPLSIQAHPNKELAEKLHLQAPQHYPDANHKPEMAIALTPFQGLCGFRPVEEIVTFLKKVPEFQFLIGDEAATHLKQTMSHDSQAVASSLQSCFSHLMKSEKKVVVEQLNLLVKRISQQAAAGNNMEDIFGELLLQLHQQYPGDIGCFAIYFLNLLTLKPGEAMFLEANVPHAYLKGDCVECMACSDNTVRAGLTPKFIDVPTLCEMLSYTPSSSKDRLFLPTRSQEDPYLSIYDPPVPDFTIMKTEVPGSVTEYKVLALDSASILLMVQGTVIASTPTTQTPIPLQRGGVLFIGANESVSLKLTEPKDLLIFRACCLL
Nature of the test: MPI inhibition at elevated mannose 6-phosphate – biochemical, fluorescence intensity, high mannose 6-phosphate, primary screen (AID 1220).

Test [7] can be described thus: viability loss in THP-1 monocytes – THP-1 cells, cytotoxicity control for Vif-APOBEC3G degradation inhibitor project, dose response (AID 1117359). The format is functional. As to conditions: THP-1.
A further test concerns the target T5, Coagulation factor XII (Homo sapiens, UniProt P00748).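 Also: activated factor XIIa alpha cleaving a fluorogenic AMC peptide substrate; inhibitor potency from loss of enzyme activity.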
T5 sequence (P00748 whole entry): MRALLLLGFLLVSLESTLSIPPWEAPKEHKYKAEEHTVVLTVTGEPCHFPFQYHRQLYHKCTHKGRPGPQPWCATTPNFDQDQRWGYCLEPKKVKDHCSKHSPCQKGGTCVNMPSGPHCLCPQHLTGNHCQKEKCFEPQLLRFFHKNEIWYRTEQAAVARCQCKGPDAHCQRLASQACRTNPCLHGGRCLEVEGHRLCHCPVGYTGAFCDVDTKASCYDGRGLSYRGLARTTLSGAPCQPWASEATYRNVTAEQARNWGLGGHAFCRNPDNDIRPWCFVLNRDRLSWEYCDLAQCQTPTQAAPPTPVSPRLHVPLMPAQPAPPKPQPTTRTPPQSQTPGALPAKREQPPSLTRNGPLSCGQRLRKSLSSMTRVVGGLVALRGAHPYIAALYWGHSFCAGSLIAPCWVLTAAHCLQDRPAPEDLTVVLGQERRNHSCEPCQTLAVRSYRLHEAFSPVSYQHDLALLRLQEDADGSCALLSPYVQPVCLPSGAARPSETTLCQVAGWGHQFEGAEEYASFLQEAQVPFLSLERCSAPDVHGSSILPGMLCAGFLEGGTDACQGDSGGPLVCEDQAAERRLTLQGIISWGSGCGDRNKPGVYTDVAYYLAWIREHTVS
In kind it is functional.

Test [8] is described as follows: P. falciparum Dd2 growth inhibitors, dose response, SYBR Green, cherry-picked samples (AID 1159567). The format is functional, cell-based.
The nature of test [9]: blockade of melanocortin 4 receptor signaling – cell-based, plate reader, cherry pick, counter-screen for LGR2 antagonist project, dose response (AID 743444).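 Also: transfected HEK 293 cells stimulated with alpha-MSH peptide; potency of inhibitors of the alpha-MSH evoked signal.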 In kind it is functional. (Counterscreens check selectivity or assay interference.)
The nature of test [10]: A549 cell cytotoxicity, dose response, cytotoxicity control, plate reader, cherry-pick, antagonist series (AID 743412). In kind it is functional, cell-based.
Test [11] can be described thus: toxicity toward HepG2 liver cells – cell-based, plate reader, cherry-pick, antagonist series, cytotoxicity control, dose response (AID 743416). The format is functional.
Test [12] can be described thus: blockers of bursicon-stimulated LGR2 cAMP reporter – cell-based, HEK293, CRE-luciferase reporter, cherry pick, set 2, dose response (AID 743343).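 Also: transfected cells were stimulated with diluted bursicon conditioned medium after compound addition.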 In kind it is functional. A general note: A reporter such as luciferase makes a cellular process visible.
Test [13] can be described thus: toxicity to human hepatoma HepG2 cells – cell-based, cherry-picked samples, cytotoxicity control, dose response (AID 1159577). In kind it is functional.
Test [14] can be described thus: toxicity to human HepG2 hepatoma cells – cell-based, plate reader, dry powder samples, cytotoxicity control, dose response (AID 1159569).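 Also: inhibitor potency with signal falling toward the positive control level.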 In kind it is functional.
The nature of test [15]: growth inhibition of yeast DHODH-expressing 3D7 parasites – SYBR Green, dry powder samples, dose response (AID 1159570).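 Also: parasite growth measured after 72 hours of compound exposure.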 The format is functional, cell-based.
The nature of test [16]: growth inhibition of PfATP4-mutant resistant parasites – NITD609-resistant line, SYBR Green, dry powder, dose response (AID 1159571).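 Also: parasites synchronized at ring stage by sorbitol before testing.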 In kind it is functional, cell-based.
Test [17] is described as follows: Dd2 malaria parasite growth inhibition potency – SYBR Green, dry powder samples, dose response (AID 1159566).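 Also: potency for growth inhibition with lower SYBR green DNA signal.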 The format is functional, cell-based.
A further test deals with Vero. Nature of the test: mammalian cell viability reduction – secondary assay, cytotoxicity control for West Nile virus antiviral project, dose response (AID 1650). In kind it is functional. The note with it: Chlorocebus sabaeus.
For test [18], the target named is T6, DNA repair protein RAD52 homolog (Homo sapiens, UniProt P43351).
T6 sequence (P43351 whole entry): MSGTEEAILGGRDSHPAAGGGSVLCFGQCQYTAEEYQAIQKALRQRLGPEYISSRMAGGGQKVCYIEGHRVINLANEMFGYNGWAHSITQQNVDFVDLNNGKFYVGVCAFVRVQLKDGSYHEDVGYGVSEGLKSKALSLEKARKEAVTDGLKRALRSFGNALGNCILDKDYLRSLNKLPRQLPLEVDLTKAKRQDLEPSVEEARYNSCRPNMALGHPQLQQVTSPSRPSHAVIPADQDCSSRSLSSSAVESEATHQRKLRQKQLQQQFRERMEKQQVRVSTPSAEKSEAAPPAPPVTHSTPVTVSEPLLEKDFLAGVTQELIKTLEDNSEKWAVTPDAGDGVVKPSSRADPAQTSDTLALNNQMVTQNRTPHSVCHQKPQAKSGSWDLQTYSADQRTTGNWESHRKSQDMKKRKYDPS
In kind it is functional, biochemical.

For the compound `COc1ccccc1NC(=O)c1ccccc1NC(=O)c1cc(Cl)ccc1NC(=O)c1ccco1`, the IC50 (usually the concentration that inhibits the measured activity by half) on Estrogen receptor was 12.5 µM (active); in test [1] it was > 109 µM (inactive); in test [2], > 83.3 µM (inactive).

`CN1C(=O)CSc2ccc(NC(=O)N3CCC(N4CCCCC4)CC3)cc21`: the half-maximal inhibitory concentration (IC50) at Estrogen receptor is 11.8 µM (active); on Estrogen receptor beta [3] it was 6.24 µM (active); on Estrogen receptor beta [4], < 77 µM (not active) and < 23 nM (not active).

As to `O=C1CC(=O)Nc2cc(S(=O)(=O)N3CCN(c4cccc(C(F)(F)F)c4)CC3)ccc2N1`, the IC50 is > 109 µM (inactive) in test [1] and > 83.3 µM (inactive) in test [2].

As to `c1ccc(OCc2nnc3sc(C4COc5ccccc5O4)nn23)cc1` (configuration not stated), the concentration for half-maximal inhibition (IC50) at Estrogen receptor was 9.55 µM (active); against Estrogen receptor beta [3], > 50 µM (not active); against Estrogen receptor beta [4], < 23 nM (not active).

Turning to `COc1ccc(OC)c(C(=O)c2ccc(C(=O)O)cc2)c1`, the EC50 (commonly the concentration giving half of the maximal effect) in test [5] is reported as > 195 µM (not active). Further, the IC50 in test [1] was > 109 µM (inactive); in test [2], > 83.3 µM (inactive).

As for `CCOC(=O)c1c(-c2ccc(C)s2)csc1N`, the IC50 in the test “cells” was > 138 µM (inactive); on Major prion protein, 104 µM (inactive); in [6], 35.4 µM (active).

For the compound `COc1ccc(OC)c(NC(=O)CC2C(=O)NCCN2C(=O)Nc2cccc(Cl)c2)c1` (configuration not stated), the half-maximal cytotoxic concentration (CC50) (commonly the concentration that lowers cell viability or growth by half) in test [7] was > 40 µM (active). At Coagulation factor XII, the IC50 is > 50 µM (inactive).

On to `O=C1CC2=CC=CC(=O)C(=O)C2=C(O)O1`, for which, in [7], the 50% cytotoxic concentration (CC50) is > 40 µM (active).

On to `N#Cc1cccc(-c2ccc([C@@H]3[C@H](CO)N4CCCCN(C(=O)Nc5cccc(F)c5)C[C@@H]34)cc2)c1`, for which the AC50 (usually the concentration at which the activity in the assay is half-maximal) in [8] was 2.18 µM (active); in test [9], 47.2 µM (active); in [10], 16.7 µM (active); in test [11] it was > 24 µM (inactive); in [12], 40.6 µM (active); in test [13], 7.5 µM (active).

In the case of `C[C@@H]1CN([C@@H](C)CO)S(=O)(=O)c2ccc(C#Cc3ccccc3)cc2O[C@H]1CN(C)C(=O)C1CC1`, the concentration at half-maximal activity (AC50) in test [8] was 4.38 µM (active); in [13], > 39 µM (inactive).

Regarding `COc1ccc(C#Cc2ccc3c(c2)[C@H]2[C@H](CCN2Cc2nccs2)[C@@H](CO)N3)cc1`, the AC50 in [8] was 1.9 µM (active); in test [14] it was 74.7 µM (active); in test [15], 3.44 µM (active); in test [16] it was 2.52 µM (active); in test [17], 2.06 µM (active).

For the compound `OC[C@@H]1[C@H](c2ccc(C#Cc3ccccc3F)cc2)[C@H]2CN(Cc3cncnc3)CCCCN12`, the AC50 in test [8] is 3.54 µM (active); in [13] it was 10.8 µM (active).

As to `C[C@H](CO)N1C[C@H](C)[C@@H](CN(C)C(=O)Nc2ccc3c(c2)OCO3)Oc2ccc(NC(=O)Nc3ccc(C(F)(F)F)cc3)cc2CC1=O`, the AC50 was 0.748 µM (active) in test [8]; > 100 µM (inactive) in test [14]; 0.406 µM (active) in test [15]; 0.238 µM (active) in test [16]; 0.276 µM (active) in test [17].

As for `COc1ccc(C#Cc2ccc3c(c2)[C@H]2[C@H](CCN2Cc2nccs2)[C@H](CO)N3)cc1`, the AC50 in test [8] was 2.09 µM (active); in test [14] it was 59.9 µM (active); in [15] it was 2.95 µM (active); in [16], 1.87 µM (active); in [17], 1.76 µM (active).

As for `CCN(CC)CCNC(=O)c1cc2c(-c3cccc(OC)c3)nn(C)c2s1`, in the test on Vero, the CC50 was > 100 µM (active). In addition, in test [18], the concentration at half-maximal activity (AC50) was 3.79 µM (active).
